13 compounds from US20260297542A1, “HERBICIDE RESISTANT PLANTS” (SYNGENTA CROP PROTECTION AG, priority 2023, published 2026) can be followed below.

Where a chain is given by its changes, count along the chain named. Like-named read-outs stand apart in the source and are kept apart here.

The target in assay [1] is T1, His-TEV-AtPP01 ΔcTP L479M (SEQ ID NO: 371) (Arabidopsis thaliana, UniProt P55826, L479M).
T1 construct: with cTPs removed; made in house; host or cells: E. coli BL21 (DE3), His GraviTrap, partially purified
T1 sequence (P55826 with tags, fused parts or gaps L479M): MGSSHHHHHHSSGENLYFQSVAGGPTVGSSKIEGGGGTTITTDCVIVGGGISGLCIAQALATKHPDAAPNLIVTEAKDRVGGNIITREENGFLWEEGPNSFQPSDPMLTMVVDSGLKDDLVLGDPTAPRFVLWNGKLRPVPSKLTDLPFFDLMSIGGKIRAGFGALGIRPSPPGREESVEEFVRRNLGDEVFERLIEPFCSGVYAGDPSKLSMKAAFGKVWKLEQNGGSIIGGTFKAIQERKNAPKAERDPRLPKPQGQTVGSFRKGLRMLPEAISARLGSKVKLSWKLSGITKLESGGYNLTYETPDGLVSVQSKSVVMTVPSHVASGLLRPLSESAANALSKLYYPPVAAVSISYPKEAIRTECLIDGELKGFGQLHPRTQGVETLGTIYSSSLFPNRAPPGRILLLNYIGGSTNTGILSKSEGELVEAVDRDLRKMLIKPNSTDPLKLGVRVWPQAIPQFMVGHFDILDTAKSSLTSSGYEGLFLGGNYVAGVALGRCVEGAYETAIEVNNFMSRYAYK
The assay is described as follows: PPO fluorescence IC50 assay, partially purified enzyme. Type of assay: biochemical. An excerpt:
(§1) A pET24 plasmid containing a DNA sequence encoding variants of AtPPO1 derived from Arabidopsis thaliana with cTPs removed and both a 6×His tag and TEV protease cleavage tag added at the N-terminus, codon-optimised for expression in E. coli, and under control of a T7 promoter, was synthesised by Twist Bioscience. The following variants were synthesised: WT AtPPO1 (SEQ ID NO: 370), AtPPO1 L479M (SEQ ID NO: 371), AtPPO1 L479N (SEQ ID NO: 372), AtPPO1 S305L Y426V (SEQ ID NO: 374) and AtPPO1 S305L Y426V L479M (SEQ ID NO: 373). This plasmid was expressed in E. coli BL21 (DE3) with 50 μg/mL kanamycin selection. 10 mL of overnight cultures grown at 37° C. were used to inoculate 1 L AIM (AIM-Terrific Broth Base including Trace elements, Formedium) in 2 L shake flasks. Cultures were grown at 37° C., 200 rpm for 3 hours and then overnight at 26° C. Cells were harvested centrifugation. 5-15 g of cell pellet was lysed in and resuspended in ratio of 1:1.5 in lysis buffer (20 mM Tris pH8, 500 mM sodium chloride, 10% glycerol, 1× complete Protease EDTA-free Inhibitor Tablet (Roche), 10 mM imidazole). The resuspension was sonicated at 75% using 10 cycles of 30 seconds, 40 seconds off. After sonication Triton X-100 was added to the lysates at a final concentration of 0.5%. The lysates were centrifuged at 20,000 rpm for 25 min at 4° C. Cleared lysates were loaded on His GraviTrap (Cytiva) columns, washed with 20 mL of lysis buffer and eluted in elution buffer (20 mM Tris pH8, 500 mM sodium chloride, 10% glycerol, 200 mM imidazole, 0.03% (v/v) Triton X-100). The eluate was desalted on a PD10 column and 2.5-3.2 mL was collected. Protein concentration was measured and calculated using the absorbance at 280 nm. Extracts were diluted 1 in 4 and 10 uL was analysed by SDS PAGE.
(§2) Partially purified Protoporphyrinogen Oxidase enzymes were assayed for activity using fluorescence adapted from the method of Shepherd & Dailey (Anal Biochem. 2005 344(1) 115-121). The assay was performed in black 384 well plates with a clear bottom and the total volume of the reaction mixture was 91 ul. The final assay mixture contained 100 mM K2HPO4 pH7.2, 1 mM Na2EDTA, 5 mM DTT, 20% glycerol (v/v), 0.05% Tween 20 (v/v), 1.1% DMSO (v/v), 1 uM protoporphyrinogen IX and 1.5 nM enzyme. Compounds were dissolved in DMSO at 1 mM and a 4-fold serial dilution carried out to give 8 rates. 1 ul was added to the assay mixture. This gave final compound concentrations of 11, 2.7, 0.69, 0.17, 0.04, 0.01, 0.002, 0.0007 uM. Enzyme and inhibitor were preincubated for 5 minutes prior to starting the reaction with the addition of the substrate. […] IC50s were calculated using GraphPad Prism 7.05 nonlinear regression (Table 6). Each compound was tested in duplicate.

The target of assay [2] is T2, His-TEV-AtPP01 ΔcTP V030 (SEQ ID NO: 374) (Arabidopsis thaliana, UniProt P55826, S305L/Y426V).
T2 construct: with cTPs removed; made in house; host or cells: E. coli BL21 (DE3), His GraviTrap, partially purified
T2 sequence (P55826 with tags, fused parts or gaps S305L/Y426V): T1 sequence (P55826 with tags, fused parts or gaps L479M) with S290L, Y411V, M464L
The description is as above. The format is biochemical.
Excerpt: as §1, §2

Setting [3] is: role: inhibitor, 1 uM protoporphyrinogen IX, <1.0 is below detection limit of assay.

As usually defined, the IC50 is the concentration needed to halve the response being measured. Low readings indicate greater potency in that assay, high ones weaker potency in that assay. Turning to `C#CCOc1cc(-n2nc3n(c2=O)CCCC3)c(Cl)cc1Cl` [Azafenadin], the IC50 in assay [1] was determined as 0.7 nM; in assay [2], 117 nM.

In the case of `C=CCOC(=O)C(C)(C)OC(=O)c1cc(-n2c(=O)cc(C(F)(F)F)n(C)c2=O)ccc1Cl` [Butafenacil, butafenacil], the IC50 in assay [1] was 0.7 nM; in assay [2] it was 11 nM.

On to `COC(=O)C(C)ON=Cc1cc(-n2c(=O)cc(C(F)(F)F)n(C)c2=O)c(F)cc1Cl` (centres unmarked) [Flufenoximacil, flufenoximacil], for which the concentration for half-maximal inhibition (IC50) in assay [1] (setting [3]) was found to be 0.7 nM; in assay [2] (setting [3]) it was 717 nM.

For `C#CCN1C(=O)COc2cc(F)c(N3C(=O)C4=C(CCCC4)C3=O)cc21` [Flumioxazin, flumioxazin], the IC50 is 1 nM in assay [1] and 47.2 nM in assay [2].

Consider `CS(=O)(=O)NC(=O)c1cc(Oc2ccc(C(F)(F)F)cc2Cl)ccc1[N+](=O)[O-]` [Fomesafen, fomesafen], for which the IC50 stood at 1.2 nM in assay [1] and 0.7 nM in assay [2].

Turning to `CCOC(=O)COc1ncccc1Oc1cc(-n2c(=O)cc(C(F)(F)F)n(C)c2=O)c(F)cc1Cl` [Herbicide A, epyrifenacil], the IC50 is 0.8 nM in assay [1] and 323 nM in assay [2].

Turning to `C#CCN1C(=O)C(F)(F)Oc2cc(F)c(-n3c(=O)n(C)c(=S)n(C)c3=O)cc21` [Herbicide B, trifludimoxazin], the values for the IC50 in assay [1] and in assay [2] were 0.8 nM and 1.3 nM, respectively.

In the case of `CCOC(=O)C1(C)CC(c2cc(-n3c(=O)cc(C(F)(F)F)n(C)c3=O)c(F)cc2Cl)=NO1` (centres unmarked) [Herbicide C, 3-(2-chloro-4-fluoro-5-(3-methyl-2,6-dioxo-4-trifluoromethyl-3,6-dihydropyrimidin-1(2H)-yl)phenyl)-5-methyl-4,5-dihydroisoxazole-5-carboxylic acid ethyl ester], the 50% inhibitory concentration (IC50) in assay [1] is 0.8 nM; in assay [2], 92 nM.

As for `CCOC(=O)[C@]1(C)CC(c2cc(-n3c(=O)n(C)c(=S)n(C)c3=O)c(F)cc2Cl)=NO1` [Herbicide D, ethyl (5S)-3-[2-chloro-5-(3,5-dimethyl-2,6-dioxo-4-thioxo-1,3,5-triazinan-1-yl)-4-fluoro-phenyl]-5-methyl-4H-isoxazole-5-carboxylate], the IC50 in assay [1] worked out at 0.6 nM; in assay [2] it was 269 nM.

On to `CC(C)N(C)S(=O)(=O)NC(=O)c1cc(-n2c(=O)cc(C(F)(F)F)n(C)c2=O)c(F)cc1Cl` [Herbicide E, saflufenacil], for which the 50% inhibitory concentration (IC50) turned out to be 2.4 nM in assay [1] and 547 nM in assay [2].

Take `CC(C)Oc1cc(-n2nc(C(C)(C)C)oc2=O)c(Cl)cc1Cl` [Oxadiazaon]: the IC50 worked out at 11.2 nM in assay [1] and 4600 nM in assay [2].

As to `C#CCN(C)c1c(C#N)cnn1-c1nn2c(c1Cl)CCCC2` [Pyraclonil], the values for the IC50 in assay [1] and in assay [2] were 2.3 nM and 4350 nM, respectively.

`CCOC(=O)COc1cc(-c2nn(C)c(OC(F)F)c2Cl)c(F)cc1Cl` [Pyraflufen-ethyl, pyraflufen-ethyl]: the results for the half-inhibitory concentration (IC50) in assay [1] and in assay [2] were 0.7 nM and 18.6 nM, respectively.
